{"source": "the NIST ThermoML archive (doi:10.1016/j.jct.2013.08.022)", "details": "Crystal, Closed cell (Static) method", "note": "Values joined by “and” are separate entries in the source; they are usually repeats but may differ in a detail not shown here. Equal values may be shown once. Numbers after ± are expanded uncertainties.", "data": [{"smiles": "c1ccccc1", "note": "[benzene]", "values": [{"measurement": "vapor or sublimation pressure", "setting": "233.2 K", "result": "0.09891 ± 0.002 kPa and 0.09902 ± 0.002 kPa and 0.09885 ± 0.002 kPa"}, {"measurement": "vapor or sublimation pressure", "setting": "235.7 K", "result": "0.1277 ± 0.0025", "unit": "kPa"}, {"measurement": "vapor or sublimation pressure", "setting": "238.21 K", "result": "0.1641 ± 0.0027", "unit": "kPa"}, {"measurement": "vapor or sublimation pressure", "setting": "240.7 K", "result": "0.2093 ± 0.0033 kPa and 0.2094 ± 0.0033 kPa and 0.2095 ± 0.0033 kPa"}, {"measurement": "vapor or sublimation pressure", "setting": "243.2 K", "result": "0.2655 ± 0.004 kPa and 0.2656 ± 0.004 kPa"}, {"measurement": "vapor or sublimation pressure", "setting": "245.68 K", "result": "0.3351 ± 0.0049 kPa and 0.3352 ± 0.0049 kPa and 0.335 ± 0.0049 kPa"}, {"measurement": "vapor or sublimation pressure", "setting": "248.18 K", "result": "0.4206 ± 0.0059 kPa and 0.4205 ± 0.0059 kPa"}, {"measurement": "vapor or sublimation pressure", "setting": "250.68 K", "result": "0.5253 ± 0.0073 kPa and 0.5257 ± 0.0073 kPa"}, {"measurement": "vapor or sublimation pressure", "setting": "253.17 K", "result": "0.6533 ± 0.0089 kPa and 0.6532 ± 0.0089 kPa and 0.6543 ± 0.0089 kPa"}, {"measurement": "vapor or sublimation pressure", "setting": "255.67 K", "result": "0.8095 ± 0.011 kPa and 0.8096 ± 0.011 kPa and 0.8092 ± 0.011 kPa"}, {"measurement": "vapor or sublimation pressure", "setting": "258.16 K", "result": "0.9997 ± 0.013 kPa and 0.9995 ± 0.013 kPa and 0.9994 ± 0.013 kPa"}, {"measurement": "vapor or sublimation pressure", "setting": "260.68 K", "result": "1.231 ± 0.016 kPa and 1.229 ± 0.016 kPa"}]}]}
